Values belong to the compound of their own block, whether it stands above or below them.
Columns and labels:
[1] = tested on: subjects with FLT3‐ITD–mutated AML following HCT; conditions: sorafenib maintenance following HCT; cited from earlier work
[2] = Plasma pharmacokinetics of quizartinib and AC886; format: in vivo, human
[3] = potentially due to induction of metabolizing enzymes; cited from earlier work
[4] = tested on: subjects with newly diagnosed AML harboring FLT3 mutations; conditions: in combination with standard first line chemotherapy; cited from earlier work

Compound: CNC(=O)c1cc(Oc2ccc(NC(=O)Nc3ccc(Cl)c(C(F)(F)F)c3)cc2)ccn1 [sorafenib]
1‐year OS [1]: 95%
1‐year progression‐free survival (PFS) [1]: 85%

Plasma trough concentrations reached steady state by ([2]; daily administration): ~15 days
Mean trough concentration ([2]; from cycle 2 onward, continuous administration): > 300 ng/mL
Tmax ([2]; human, plasma, oral): 2 to 3.21 h
Increase in geometric mean AUC0–24 during multiple dosing ([2]; quizartinib, both doses): approximately 5 fold
Compound: CC(C)(C)c1cc(NC(=O)Nc2ccc(-c3cn4c(n3)sc3cc(OCCN5CCOCC5)ccc34)cc2)no1.Cl.Cl [quizartinib, N‐(5‐tert‐butyl‐isoxazol‐3‐yl)‐N′‐{4‐[7‐(2‐morpholin‐4‐yl‐ethoxy)imidazo[2,1‐b][1, 3]benzothiazol‐2‐yl]phenyl}urea dihydrochloride]

Compound: CO[C@@H]1[C@H](N(C)C(=O)c2ccccc2)C[C@H]2O[C@]1(C)n1c3ccccc3c3c4c(c5c6ccccc6n2c5c31)C(=O)NC4 [midostaurin]
Plasma concentrations during continuous dosing [3]: decrease during continuous dosing
OS benefit [4]: significant OS benefit
